The values below come from patent publication EP4729061A1, “USE OF AKT INHIBITOR IN PREPARATION OF DRUG FOR PREVENTING OR TREATING BREAST CANCER” (Nanjing Chia Tai Tianqing Pharmaceutical Co., Ltd., priority 2023, dated 2024).

The IC50 is the concentration needed to halve the response being measured. In general, T/C refers to the result in the treated group divided by that in the control group, in per cent. Usually TGI stands for the reduction of tumour growth relative to the control group.

Data set [1] has as its system T47D Cells. Briefly: Cell proliferation inhibition, CTG (CelltiterGlo) method, alone or combined with fulvestrant. Format: cell-based. The settings on record: compound alone; for IC50: Homo sapiens, T47D, 168 h, 7 days; for Maximum Inhibition Rate on T47D Cells: maximum value fitted by GraphPad Prism 8. The protocol:
a). BT-474 cells were cultured in Hybri-Care medium supplemented with 1% antibiotics and 10% FBS, and incubated in the condition of 37°C with 5% CO2; b). MCF-7 cells were cultured in EMEM medium supplemented with 1% antibiotics, 0.01 mg/mL insulin, and 10% FBS, and incubated in the condition of 37°C with 5% CO2; c). ZR-75-1 cells were cultured in RPMI-1640 medium supplemented with 1% antibiotics and 10% FBS, and incubated in the condition of 37°C with 5% CO2; d). T47D cells were cultured in RPMI-1640 medium supplemented with 1% antibiotics, 0.2 U/mL insulin, and 10% FBS, and incubated in the condition of 37°C with 5% CO2; e) CAMA-1 cells were cultured in EMEM medium supplemented with 1% antibiotics and 10% FBS, and incubated in the condition of 37°C with 5% CO2.
a). Cells were routinely cultured until reaching 80%-90% confluence and when the required cell number was reached, they were harvested; b). Resuspended in the corresponding medium, counted, and prepared into a cell suspension with appropriate density; c). The cell suspension was added to a 384-well plate at 40 µL per well. Table 1. Plating densities of different cell lines
d). The cells were cultured overnight in an incubator at 37°C with 5% CO2 .
a). The compound of Formula (A) was serially diluted 3-fold for 10 concentrations starting from a stock solution of 60 mM (using the monofumarate dihydrate of the compound of Formula (A), with the concentration calculated based on the free base of the compound of Formula (A); the compound of Formula (A) or salt thereof was prepared with reference to the preparation method disclosed in WO2022017448A1); b). Fulvestrant was diluted from 10 mM to 2 mM with DMSO, then serially diluted 3-fold for 10 concentrations; c). Fulvestrant was diluted from 2 mM to 0.2 mM with DMSO, then serially diluted 3-fold for 10 concentrations; d). Fulvestrant was diluted from 0.2 mM to 2 µM with DMSO; e). Fulvestrant was diluted from 2 µM to 0.8 µM with DMSO; f). Fulvestrant was diluted from 2 µM to 0.3 µM with DMSO; g) Fulvestrant was diluted from 0.8 µM to 0.08 µM with DMSO; h). The final concentration of DMSO was 0.1%; i). Cells supplemented with DMSO served as control wells for high reading values; j). Cell-free medium served as control wells for low reading values.
24 Hours after MCF-7, T47D, and CAMA-1 cells were plated, the compound was administered alone. For the compound of Formula (A): 20 nL of the compound prepared in step 2.3 a) + 20 nL of DMSO were added. For compound fulvestrant: 20 nL of the compound prepared in step 2.3 c) + 20 nL of DMSO were added.
24 Hours after T47D cells were plated, the compound of Formula (A) was administered in combination with fulvestrant: 20 nL of the compound prepared in step 2.3 a) + 20 nL of the compounds prepared in step 2.3 c), e), and g). […]

In data set [2] the test system is MCF-7 human breast cancer subcutaneous xenograft model. In words: Tumor inhibition in subcutaneous xenograft model. Format: in vivo, female BALB/c nude mice. The settings on record: the compound of Formula (A) 25 mg/kg p.o. QD, Fulvestrant 5 mg/mouse s.c. QW; for Body weight Post 28 Days of Treatment: mean ± standard error; for Body weight Post 28 Days of Treatment / Tumor Volume 28 Days After Administration: n=12, x 4 weeks; for Tumor Volume 28 Days After Administration: tumor volume at grouping 204 ± 6, P <0.001 vs control; for T/C: relative tumor volume increase ratio; for T/C / TGI: day 28; for TGI: tumor growth inhibition rate. From the text: The purpose of this study is to evaluate the therapeutic efficacy of the compound of Formula (A) in combination with fulvestrant in the MCF-7 human breast cancer subcutaneous xenograft model in female BALB/c nude mice.
BALB/c nude mice, 6-8 weeks old, female, weighing 18-20 g, were purchased from Beijing Anikeeper Biotech Co., Ltd.. The feeding environment was SPF-grade, the temperature is (23±3)°C and the humidity is 40-70%.
Solvent for the compound of Formula (A): 1,2-Propanediol (PG) : 50% Solutol HS-15 : 0.5% Hydroxypropyl Methylcellulose (HPMC) = 2 : 1 : 7.
Compound preparation methods
MCF-7 tumor cells were cultured in DMEM medium containing inactivated 15% fetal bovine serum, 100 U/mL penicillin, and 100 µg/mL streptomycin in an incubator at 37°C with 5% CO2. Tumor cells in the logarithmic growth phase were used for in vivo tumor inoculation.
One day before the inoculation of MCF-7 tumor cells, the mice were subcutaneously implanted with an estrogen tablet (0.5 mg, 90-day release period) on the left side. MCF-7 tumor cells resuspended in serum-free DMEM medium were inoculated subcutaneously into the right costal region of the experimental animals at a density of 1.5 × 10^7 cells (0.2 mL + Matrigel), with a total of 72 animals inoculated. When the tumors grew to approximately 204 mm^3, 48 animals with relatively uniform tumor volumes were selected for grouping and administration, divided into 4 groups, and administered according to the dosing schedule. Table 8. Compounds administration schedule
Tumor volume was measured twice a week using a vernier caliper. The long diameter and short diameter of the tumor were measured, and the volume was calculated using the formula: Volume = 0.5×long diameter×short diameter^2.
While measuring the tumor volume, the body weight of the mice was weighed. The relationship between the changes in the mice's body weight and the administration time was recorded. Meanwhile, the survival status and health conditions of the mice were observed, such as their general states including activity and food intake during the administration period.
Tumor Growth Inhibition Rate(TGI,%) = (1−T/C) × 100 [formula]
Statistical analysis of tumor volume between groups was performed using the statistical software SPSS 16.0 and One-Way ANOVA test. A p-value < 0.05 was considered statistically significant.

In the case of `CC(C)NC[C@@H](C(=O)N1CCN(c2ncnc3c2[C@H](C)CC(=O)N3)[C@H]2C[C@H]21)c1ccc(Cl)cc1` [The compound of Formula (A), (R)-4-((1S,6R)-5-((S)-2-(4-chlorophenyl)-3-(isopropylamino)propanoyl)-2,5-diazabicyclo[4.1.0]heptan-2-yl)-5-methyl-5,8-dihydropyrido[2,3-d]pyrimidin-7(6H)-one], in data set [1], the 50% inhibitory concentration (IC50) came to 358 nM and the “Maximum Inhibition Rate on T47D Cells” value was 91.47%. Besides, in data set [2], the “Body weight Post 28 Days of Treatment” value worked out at 23.8 ± 0.5 g, the “Tumor Volume 28 Days After Administration” value is 684 ± 65 mm^3, the T/C worked out at 58.4% and the tumour growth inhibition (TGI) was determined as 41.6%.
Consider `C[C@]12CC[C@@H]3c4ccc(O)cc4C[C@@H](CCCCCCCCC[S+]([O-])CCCC(F)(F)C(F)(F)F)[C@H]3[C@@H]1CC[C@@H]2O` (stereo partly drawn) [Fulvestrant, reference compound], for which, in data set [1], the IC50 is 0.09 nM and the “Maximum Inhibition Rate on T47D Cells” value stood at 62.71%. Also, in data set [2], the “Body weight Post 28 Days of Treatment” value was 25.9 ± 0.3 g, the “Tumor Volume 28 Days After Administration” value is 546 ± 54 mm^3, the T/C amounted to 46.9% and the TGI is given as 53.1%.
